Assay results published in patent publication US20080113038A1, “Composition For Promoting Osteogenesis And Increasing Bone Mineral Content” (priority 2004, published 2008).

Tests used:
[1] = system: femur diaphysis and metaphysis tissues; experiment: DNA level in bone tissues by oral administration; assay type: in vivo, rat; conditions: rats, β-cryptoxanthin 5 μg/100 g body weight, zinc 0.1 mg/100 g body weight; for Change of DNA level in diaphysis (in words) / Change of DNA level in metaphysis tissues (in words): oral 7 days; for DNA level in bone tissues, diaphysis part / DNA level in bone tissues, metaphysis part: oral once a day for 7 days
Protocol: (§1) DNA level was determined as an index of cell count in bone tissues. […] After osmosis at 4° C. for 24 hours, the liquid mixture was centrifuged. The supernatant was taken as a sample and determined by a method of Ceriotti et al. (J. Biol. Chem., 241; 34-77, 1951). Namely, 1 ml of concentrated hydrochloric acid and 1 ml of 0.04% indole solution were added to 2 ml of the sample and then the resultant mixture was heated to 100° C. in boiling water. After quenching followed by an extraction with 4 ml of chloroform, the chloroform layer was taken to determine bone DNA level with a spectrophotometer (490 nm).
(§2) 24 hours after the final administration, femur was extracted, and the change in calcium levels in diaphysis and metaphysis tissues was examined with the method of Example 1.
The change of DNA level in diaphysis and metaphysis tissues which were extracted in the same manner as in Example 5 was examined with the method of Example 4.

[2] = system: alkaline phosphatase in bone tissues (femur diaphysis and metaphysis); experiment: Alkaline phosphatase activity in bone tissues by oral administration; assay type: in vivo, rat; conditions: rats, β-cryptoxanthin 5 μg/100 g body weight, zinc 0.1 mg/100 g body weight; for Change of alkaline phosphatase activity in diaphysis and metaphysis tissues (in words): oral 7 days; for Alkaline phosphatase activity in bone tissues, diaphysis part / Alkaline phosphatase activity in bone tissues, metaphysis part: oral once a day for 7 days
Protocol: (§3) The expression level of alkaline phosphatase, which is the most important enzyme for promoting bone calcification, was examined. […] The resultant liquid was centrifuged. The supernatant, as an enzyme solution, was determined by a method of Walter and Schutt (in Method of Enzymatic Analysis, Vol. 1-2, p. 856, Academic Press, New York, 1965). Namely, this method was carried out as follows: p-nitrophenylphosphoric acid was used as a substrate; 0.05 ml of the enzyme solution was added to 2 ml of diethanolamine buffer (pH 9.8). After the incubation at 37° C. for 30 minutes, 10 ml of 0.05 N NaOH was added to the mixture. The absorbance (405 nm) was determined with a spectrophotometer to examine bone alkaline phosphatase activity of a therapeutic agent for bones and of a compound known to be effective for bones.
as §2
The change of alkaline phosphatase activity in diaphysis and metaphysis tissues which were extracted in the same manner as in Example 5 was examined with the method of Example 3.

[3] = system: diaphysis and metaphysis tissues of rat femur; experiment: DNA level in bone tissues in a bone tissue culture system; assay type: cell-based; conditions: 48 h culture, β-cryptoxanthin 10^−9 M, zinc 10^−6 M; for DNA level in bone tissues, diaphysis part / DNA level in bone tissues, metaphysis part: mean ± SD, 5 rats; for Change of DNA level in bone tissues compared to the control group (in words): diaphysis and metaphysis
Protocol: (§4) After degradation, solution amount was measured.
as §1

[4] = system: diaphysis and metaphysis tissues of a femur; conditions: cited from earlier work
[5] = system: alkaline phosphatase in bone tissues (femur diaphysis and metaphysis); experiment: Alkaline phosphatase activity in bone tissues in a bone tissue culture system; assay type: cell-based, rat; conditions: 48 h culture, β-cryptoxanthin 10^−9 M, zinc 10^−6 M; for Alkaline phosphatase activity in bone tissues, diaphysis part / Alkaline phosphatase activity in bone tissues, metaphysis part: mean ± SD, 5 rats; for Change of alkaline phosphatase activity in bone tissues compared to the control group (in words): diaphysis and metaphysis
Protocol: as §4
as §3, with “mixture.” for “mixture. The absorbance (405 nm) was determined with a spectrophotometer to examine bone alkaline phosphatase activity of a therapeutic agent for bones and of a compound known to be effective for bones.”

[6] = system: diaphysis and metaphysis tissues of rat femur; experiment: Calcium level in bone tissues in a bone tissue culture system; conditions: for Calcium level in bone tissues, diaphysis part / Calcium level in bone tissues, metaphysis part / Change of calcium levels in bone tissues compared to the control group (in words) / Change of calcium levels in bone tissues (in words): 48 h culture, β-cryptoxanthin 10^−9 M; for Calcium level in bone tissues, diaphysis part / Calcium level in bone tissues, metaphysis part: mean ± SD, 5 rats; for Change of calcium levels in bone tissues compared to the control group (in words): both diaphysis and metaphysis; for Change of calcium level in bone tissues (in words): higher concentration of 10^−5 M
Protocol: Rats (Wistar male rats; 4 weeks old, body weight 85-90 g; purchased from Japan SLC Ltd., and fed with solid Oriental yeast (MF)) were sacrificed under mild ether anesthesia. Muscle tissues around femur were removed completely, divided into diaphysis (cortical bone) and metaphysis (cancellous bone) tissues of femur, and then the bone marrow cells were washed and removed in a cold 0.25 M sucrose solution. The bone tissue pieces were cultured in a Dulbecco's modified Eagle's culture medium (serum-free, containing 50 units/ml penicillin and 50 μg/ml spretomycin, supplemented with 45 mg/ml glucose), in an CO2 incubator aseptically for 48 hours at 37° C. […] Bone tissues were put into a culture dish (with a diameter of 35 mm, made of plastic) added with 2.0 ml of the above mentioned culture solution, and cultured. After being cultured, bone tissues were washed well in a cold 0.25 M sucrose solution, dried at 100° C. for 5 hours, and weighed. Dried bone tissues were put into a test tube (15 ml), to which 2.0 ml of concentrated nitric acid was added, and the resultant was heated and degraded at 100° C. for 16 hours. After degradation, solution amount was measured. A specific amount thereof was diluted with purified distilled water, and calcium was determined by colorimetry (kit for measuring calcium, Wako Pure Chemical Industries). Calcium levels in bone tissues are indicated as mg per 1 g of dried weight of cultured bone tissues. In the above experiment, bone tissues obtained from one rat were put in one culture dish, and 5 culture dishes were used for 5 rats. 5 dishes were used for each of the control, β-cryptoxanthin alone group, zinc alone group, and the β-cryptoxanthin and zinc-combined group. […] A critical value of less than 5% was determined as having a significant difference.
In order to investigate the effect on calcium levels in bone tissues when β-cryptoxanthin and zinc, or genistein and menaquinone-7 are supplied in the bone tissue culture system, femur diaphysis and metaphysis tissues were cultured for 48 hours in a culture solution, in the same manner as in Example 1, and the calcium level in bone tissues was measured, compared and evaluated.

[7] = system: femur diaphysis and metaphysis tissues; experiment: Calcium level in bone tissues by oral administration; assay type: in vivo, rat; conditions: rats, β-cryptoxanthin 5 μg/100 g body weight, zinc 0.1 mg/100 g body weight; for Change of calcium level in diaphysis (in words) / Change of calcium level in metaphysis (in words): oral 7 days; for Calcium level in bone tissues, diaphysis part / Calcium level in bone tissues, metaphysis part: oral once a day for 7 days, femur 24 h after final administration
Protocol: as §4, §2

[8] = system: bone protein synthesis; conditions: non-patent document 4; cited from earlier work
[9] = Example 2, zinc, genistein, menaquinone-7 each 10^−6 M

| SMILES | Change of DNA level in diaphysis (in words) [1] | Change of DNA level in metaphysis tissues (in words) [1] | DNA level in bone tissues, diaphysis part [1] [mg/g bone wet weight] | DNA level in bone tissues, metaphysis part [1] [mg/g bone wet weight] | Change of alkaline phosphatase activity in diaphysis and metaphysis tissues (in words) [2] | Alkaline phosphatase activity in bone tissues, diaphysis part [2] [μmol/min/mg protein] | Alkaline phosphatase activity in bone tissues, metaphysis part [2] [μmol/min/mg protein] | DNA level in bone tissues, diaphysis part [3] [mg/g bone wet weight] | DNA level in bone tissues, metaphysis part [3] [mg/g bone wet weight] | Change of DNA level in bone tissues compared to the control group (in words) [3] | Alkaline phosphatase activity in bone tissues, diaphysis part [5] [μmol/min/mg protein] | Alkaline phosphatase activity in bone tissues, metaphysis part [5] [μmol/min/mg protein] | Change of alkaline phosphatase activity in bone tissues compared to the control group (in words) [5] | Calcium level in bone tissues, diaphysis part ([6]; Example 1, zinc 10^−6 M) [mg/g bone dry weight] | Calcium level in bone tissues, metaphysis part ([6]; Example 1, zinc 10^−6 M) [mg/g bone dry weight] | Change of calcium levels in bone tissues compared to the control group (in words) ([6]; Example 1, zinc 10^−6 M) | Change of calcium levels in bone tissues (in words) [6, 9] | Calcium level in bone tissues, diaphysis part [6, 9] [mg/g bone dry weight] | Calcium level in bone tissues, metaphysis part [6, 9] [mg/g bone dry weight] | Change of calcium level in diaphysis (in words) [7] | other results |
| --- | --- | --- | --- | --- | --- | --- | --- | --- | --- | --- | --- | --- | --- | --- | --- | --- | --- | --- | --- | --- | --- |
| CC1=C(/C=C/C(C)=C/C=C/C(C)=C/C=C/C=C(C)/C=C/C=C(C)/C=C/C2=C(C)C[C@@H](O)CC2(C)C)C(C)(C)CCC1 [β-cryptoxanthin] | did not induce a significant change | significant increase | 1.980 ± 0.251 | 4.102 ± 0.055 | did not induce a significant change | 1.703 ± 0.056 | 1.159 ± 0.048 | 1.358 ± 0.089 | 3.141 ± 0.078 | did not change significantly | 1.010 ± 0.078 | 1.122 ± 0.078 | did not change significantly | 221.5 ± 3.95 | 189.5 ± 2.39 | did not change significantly | did not increase significantly | 221.5 ± 3.45 | 189.5 ± 3.44 | did not induce a significant change | Effective concentration for promoting osteogenesis and increasing bone calcium level ([4]; 48-hour culture system of a bone tissue culture system, earlier report of the inventors): 10^−8-10^−6 M; Concentration at which osteogenesis is promoted and bone calcium increased ([4]; 48 h culture in a bone tissue culture system, patent document 10, non-patent document 2): 10^−1 to 10^−6; Calcium level, bone calcification accelerating enzyme and DNA level in bone tissues (in words) ([4]; femur diaphysis and metaphysis tissues cultured in medium containing β-cryptoxanthin, earlier report of the inventors): significant increase; Change of calcium level in metaphysis (in words) [7]: increased significantly; Calcium level in bone tissues, diaphysis part [7]: 233.6 ± 6.8 mg/g dry mass; Calcium level in bone tissues, metaphysis part [7]: 190.1 ± 3.4 mg/g dry mass |
| O=c1c(-c2ccc(O)cc2)coc2cc(O)cc(O)c12 [genistein, reference compound] |  |  |  |  |  |  |  |  |  |  |  |  |  |  |  |  | did not increase significantly | 211.0 ± 7.93 | 189.3 ± 6.40 |  | Change of calcium level in bone tissues (in words) [6]: increasing significantly |
| O=S(=O)([O-])[O-].[Zn+2] [zinc, zinc sulfate] | did not induce a significant change | did not induce a significant change | 1.805 ± 0.154 | 3.278 ± 0.103 | did not induce a significant change | 1.725 ± 0.038 | 1.170 ± 0.033 | 1.471 ± 0.052 | 3.025 ± 0.271 | did not change significantly | 1.019 ± 0.061 | 1.190 ± 0.079 | did not change significantly | 215.5 ± 2.01 | 185.6 ± 1.56 | did not change significantly | did not increase significantly | 224.3 ± 2.90 | 190.2 ± 2.53 | did not induce a significant change | Concentration at which synthesis of bone protein is promoted [8]: ≥ 10^−4 M; Change of calcium level in metaphysis (in words) [7]: did not induce a significant change; Calcium level in bone tissues, diaphysis part [7]: 227.9 ± 4.3 mg/g dry mass; Calcium level in bone tissues, metaphysis part [7]: 178.6 ± 4.0 mg/g dry mass |
| CC(C)=CCC/C(C)=C/CC/C(C)=C/CC/C(C)=C/CC/C(C)=C/CC/C(C)=C/CC/C(C)=C/CC1=C(C)C(=O)c2ccccc2C1=O [menaquinone-7, reference compound] |  |  |  |  |  |  |  |  |  |  |  |  |  |  |  |  | did not increase significantly | 219.8 ± 4.20 | 184.9 ± 2.70 |  | Change of calcium level in bone tissues (in words) [6]: increasing significantly |
